Experimental data from ChEMBL document CHEMBL3804756 (J Med Chem, 2016).

Key:
Histamine H4 receptor [1] = molecular target: T1, Histamine H4 receptor (Homo sapiens, UniProt Q9H3N8); assay: Agonist activity at human histamine H4 receptor expressed in sf9 cell membrane co-expressing mammalian Galphai2 and Gbeta1gamma2 incubated for 90 mins by [35S]GTPgammaS binding assay; format: functional
Histamine H3 receptor [2] = molecular target: T2, Histamine H3 receptor (Homo sapiens, UniProt Q9Y5N1); assay: Intrinsic activity at human histamine H3 receptor expressed in sf9 cell membrane co-expressing mammalian Galphai2 and Gbeta1gamma2 at 10 uM incubated for 90 mins by [35S]GTPgammaS binding assay relative to histamine; format: functional
T2 sequence (Q9Y5N1 whole entry): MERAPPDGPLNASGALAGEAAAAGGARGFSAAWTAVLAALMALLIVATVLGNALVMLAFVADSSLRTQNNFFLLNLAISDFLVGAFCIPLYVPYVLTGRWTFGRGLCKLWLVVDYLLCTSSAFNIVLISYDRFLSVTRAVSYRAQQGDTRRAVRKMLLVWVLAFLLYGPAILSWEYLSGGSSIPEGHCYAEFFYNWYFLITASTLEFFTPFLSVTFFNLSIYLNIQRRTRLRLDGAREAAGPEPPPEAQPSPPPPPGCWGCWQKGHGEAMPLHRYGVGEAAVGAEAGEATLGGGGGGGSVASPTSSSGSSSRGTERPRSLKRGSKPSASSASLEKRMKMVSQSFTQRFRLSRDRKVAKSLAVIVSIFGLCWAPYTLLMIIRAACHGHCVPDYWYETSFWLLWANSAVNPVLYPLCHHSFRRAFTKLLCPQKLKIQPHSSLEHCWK

Histamine H2 receptor [3] = molecular target: T3, Histamine H2 receptor (Homo sapiens, UniProt P25021); assay: Intrinsic activity at human histamine H2 receptor expressed in sf9 cell membrane co-expressing Gsalphas at 10 uM incubated for 90 mins by [35S]GTPgammaS binding assay relative to histamine; format: functional
T3 sequence (P25021 whole entry): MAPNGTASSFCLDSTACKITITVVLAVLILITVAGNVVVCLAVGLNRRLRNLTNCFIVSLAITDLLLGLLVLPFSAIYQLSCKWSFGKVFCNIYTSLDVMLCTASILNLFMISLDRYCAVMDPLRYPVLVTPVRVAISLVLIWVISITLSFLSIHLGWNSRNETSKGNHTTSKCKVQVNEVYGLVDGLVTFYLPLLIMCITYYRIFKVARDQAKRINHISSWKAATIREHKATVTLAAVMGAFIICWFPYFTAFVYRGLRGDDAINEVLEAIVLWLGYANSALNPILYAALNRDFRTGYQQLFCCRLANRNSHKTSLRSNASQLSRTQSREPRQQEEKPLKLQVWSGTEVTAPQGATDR

Histamine H1 receptor = Histamine H1 receptor (Homo sapiens, UniProt P35367); assay: Displacement of [3H]mepyramine from human histamine H1 receptor expressed in sf9 cell membrane co-expressing RGS4 incubated for 60 mins by liquid scintillation counting method
Chain of Histamine H1 receptor (P35367 whole entry): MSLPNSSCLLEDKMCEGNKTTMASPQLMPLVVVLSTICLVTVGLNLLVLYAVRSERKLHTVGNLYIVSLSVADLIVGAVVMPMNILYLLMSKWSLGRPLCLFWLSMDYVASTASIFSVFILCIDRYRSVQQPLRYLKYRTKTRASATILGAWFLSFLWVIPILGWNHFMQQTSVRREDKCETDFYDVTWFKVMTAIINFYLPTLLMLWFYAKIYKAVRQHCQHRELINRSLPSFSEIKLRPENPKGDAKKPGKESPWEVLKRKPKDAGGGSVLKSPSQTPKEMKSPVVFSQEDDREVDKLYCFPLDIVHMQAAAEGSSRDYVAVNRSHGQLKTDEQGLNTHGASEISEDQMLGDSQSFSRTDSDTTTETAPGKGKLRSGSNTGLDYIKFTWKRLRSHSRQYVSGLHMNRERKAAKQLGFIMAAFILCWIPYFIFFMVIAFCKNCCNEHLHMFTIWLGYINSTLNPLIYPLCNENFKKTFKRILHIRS

Histamine H2 receptor [4] = molecular target: T3, Histamine H2 receptor; assay: Agonist activity at human histamine H2 receptor expressed in sf9 cell membrane co-expressing Gsalphas incubated for 90 mins by [35S]GTPgammaS binding assay; format: functional
Histamine H3 receptor [5] = molecular target: T2, Histamine H3 receptor; assay: Antagonist activity at human histamine H3 receptor expressed in sf9 cell membrane co-expressing mammalian Galphai2 and Gbeta1gamma2 assessed as inhibition of histamine-induced [35S]GTPgammaS binding incubated for 90 mins; format: functional
Histamine H3 receptor [6] = molecular target: T2, Histamine H3 receptor; assay: Displacement of [3H]N-alpha-methylhistamine from human histamine H3 receptor expressed in human SK-N-MC cells incubated for 40 mins; format: cell-based
Histamine H4 receptor [7] = molecular target: T1, Histamine H4 receptor; assay: biochemical; format: cell-based, SK-N-MC

Ki (Histamine H3 receptor [6]) [µM]	Ki (Histamine H4 receptor [7]) [µM]	Compound	EC50 (Histamine H4 receptor [1]) [µM]	Intrinsic activity (Histamine H3 receptor [2])	Intrinsic activity (Histamine H2 receptor [3])	Ki (Histamine H1 receptor) [µM]	EC50 (Histamine H2 receptor [4]) [µM]	Kb (Histamine H3 receptor [5]) [µM]
–	–	NC[C@H]1CC[C@H](c2c[nH]cn2)C1 (racemic)	1.71	0	0	> 10	> 10	0.103
–	–	NC[C@@H]1CC[C@H](c2c[nH]cn2)C1 (racemic)	0.15	0	0.19	> 10	> 10	0.062
0.0043	0.0127	NCCCCc1c[nH]cn1 [IMBUTAMINE]	–	–	–	–	–	–
